Measurements published in ChEMBL document CHEMBL3352218, “Structural basis for inhibition of mycobacterial and human adenosine kinase by 7-substituted 7-(Het)aryl-7-deazaadenine ribonucleosides” (J Med Chem, 2014).
In brackets after ≈: the same amount, converted by molar mass. Activity calls are given as the source filed them. The rule behind the calls is not given here.

Columns and labels:
[1] = tested on: Mycobacterium tuberculosis; assay: Antimycobacterial activity against Mycobacterium tuberculosis H37Rv My 331/88 assessed as microbial growth inhibition incubated for 14 days; type: functional; conditions: H37Rv My 331/88, 336 h
[2] = tested on: BJ; assay: Cytotoxicity against human BJ cells by MTT assay; type: functional
[3] = tested on: MRC5; assay: Cytotoxicity against human MRC5 cells by MTT assay; type: functional
[4] = tested on: Mycobacterium tuberculosis; assay: Activity of Mycobacterium tuberculosis ADK expressed in Escherichia coli BL21(DE3) cells assessed as compound phosphorylation by measuring conversion of compound to 5'-phosphate
[5] = Inhibition of Mycobacterium tuberculosis ADK expressed in Escherichia coli BL21(DE3) cells using [3H]adenosine by liquid scintillation counting method
[6] = biological target: Adenosine kinase (Homo sapiens, UniProt P55263); assay: Inhibition of human ADK expressed in Escherichia coli BL21(DE3) cells using [3H]adenosine by liquid scintillation counting method
Adenosine kinase, sequence (P55263 whole entry): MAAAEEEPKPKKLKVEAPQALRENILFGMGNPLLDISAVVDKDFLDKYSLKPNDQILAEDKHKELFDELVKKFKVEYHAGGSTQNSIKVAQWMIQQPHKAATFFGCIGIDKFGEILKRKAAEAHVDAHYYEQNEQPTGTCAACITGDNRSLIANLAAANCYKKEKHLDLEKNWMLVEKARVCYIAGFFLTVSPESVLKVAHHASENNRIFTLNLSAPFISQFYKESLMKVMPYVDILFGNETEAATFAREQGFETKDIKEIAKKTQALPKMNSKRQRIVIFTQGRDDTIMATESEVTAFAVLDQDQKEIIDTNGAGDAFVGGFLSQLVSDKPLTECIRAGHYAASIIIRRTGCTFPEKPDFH

Compound | MIC [1] [µM] | CC50 [2] [µM] | CC50 [3] [µM] | Activity [4] | IC50 [5] [µM] | IC50 [6] [µM]
NNC(=O)c1ccncc1 [ISONIAZID] | 0.5 (≈ 0.0686 µg/mL) |  |  |  |  | 
Nc1ncnc2c1c(-c1ccc(-c3ccc4ccccc4c3)cc1)cn2[C@@H]1O[C@H](CO)[C@@H](O)[C@H]1O | 62.5 (≈ 29.3 µg/mL) | 0.12 | 64.2 | inactive | > 10 | > 20
Nc1ncnc2c1c(/C=C/c1ccccc1)cn2[C@@H]1O[C@H](CO)[C@@H](O)[C@H]1O | 8 (≈ 2.95 µg/mL) | 19.6 | 48.2 | inactive | 0.9 | > 10
COc1ccc(-c2cn([C@@H]3O[C@H](CO)[C@@H](O)[C@H]3O)c3ncnc(N)c23)cc1 | 16 (≈ 5.96 µg/mL) | 21.9 | 61.4 | inactive | > 10 | > 5
Nc1ncnc2c1c(-c1ccc(-c3ccccc3)cc1)cn2[C@@H]1O[C@H](CO)[C@@H](O)[C@H]1O | 4 (≈ 1.67 µg/mL) | 40.6 | 93.7 | inactive | 7.67 | > 20
CC(C)Oc1ccc(-c2cn([C@@H]3O[C@H](CO)[C@@H](O)[C@H]3O)c3ncnc(N)c23)cc1 | 32 (≈ 12.8 µg/mL) | 59.9 | 50.2 | inactive | 13.1 | > 10
Nc1ncnc2c1c(-c1ccccc1)cn2[C@@H]1O[C@H](CO)[C@@H](O)[C@H]1O | 8 (≈ 2.74 µg/mL) | 50.9 | 21 | inactive | > 10 | 
Nc1ncnc2c1c(-c1ccc(C(F)(F)F)cc1)cn2[C@@H]1O[C@H](CO)[C@@H](O)[C@H]1O | 4 (≈ 1.64 µg/mL) | 62 | 78.8 | inactive | > 10 | > 10
Nc1ncnc2c1c(-c1ccc3c4c(cccc14)CC3)cn2[C@@H]1O[C@H](CO)[C@@H](O)[C@H]1O | 16 (≈ 6.7 µg/mL) | 23.1 | > 100 | inactive | > 10 | > 10
CC(C)(C)c1ccc(-c2cn([C@@H]3O[C@H](CO)[C@@H](O)[C@H]3O)c3ncnc(N)c23)cc1 | 62.5 (≈ 24.9 µg/mL) | > 100 | 96.3 | inactive | > 10 | > 20
Nc1ncnc2c1c(-c1cc3ccccc3c3ccccc13)cn2[C@@H]1O[C@H](CO)[C@@H](O)[C@H]1O | 32 (≈ 14.2 µg/mL) | > 100 | 66 | inactive | > 10 | > 10
Cc1ccc(-c2cn([C@@H]3O[C@H](CO)[C@@H](O)[C@H]3O)c3ncnc(N)c23)cc1C | 8 (≈ 2.96 µg/mL) | 57.3 | 37.9 | inactive | 4.9 | > 20
CC(C)c1ccc(-c2cn([C@@H]3O[C@H](CO)[C@@H](O)[C@H]3O)c3ncnc(N)c23)cc1 | 16 (≈ 6.15 µg/mL) | 63.9 | 52.9 | inactive | > 10 | > 20
Nc1ncnc2c1c(-c1cccc3ccccc13)cn2[C@@H]1O[C@H](CO)[C@@H](O)[C@H]1O | 32 (≈ 12.6 µg/mL) | 90.6 | 94.4 | inactive | > 10 | 
Nc1ncnc2c1c(-c1ccc3ccccc3c1)cn2[C@@H]1O[C@H](CO)[C@@H](O)[C@H]1O | 2 (≈ 0.785 µg/mL) | 13.9 | 13.6 | inactive | 5.33 | 
Nc1ncnc2c1c(-c1cc3ccccc3o1)cn2[C@@H]1O[C@H](CO)[C@@H](O)[C@H]1O | 16 (≈ 6.12 µg/mL) | 21.2 | 35.1 | inactive | 1.8 | 
CSc1ccc(-c2cn([C@@H]3O[C@H](CO)[C@@H](O)[C@H]3O)c3ncnc(N)c23)cc1 | 4 (≈ 1.55 µg/mL) | 18 | 45.6 | inactive | > 10 | 
